Test results reported in the supplement of paper PMC10307832.

Key:
Test in all cases: relative viability (nuclei count vs DMSO), 5 days (fraction); higher = more cells survive
NCI-H1437 = system: NCI-H1437
Procedure, shortened: (§1)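 Five library-drug doses in √10 steps were combined with a fixed anchor-drug dose, or a single drug was given alone, by pin tool to lung cancer cell lines in 1536-well plates the day after seeding. Nuclei were stained and counted after 5 days. Relative viability is the nuclei count in treated wells over that in vehicle wells, taken as the median of duplicate plates.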

NCI-H1792 = system: NCI-H1792
Procedure, shortened: as §1

NCI-H650 = system: NCI-H650
Procedure, shortened: as §1

SK-MES-1 = system: SK-MES-1
Procedure, shortened: as §1

HCC-827 = system: HCC-827
Procedure, shortened: as §1

NCI-H596 = system: NCI-H596
Procedure, shortened: as §1

SW 900 = system: SW 900
Procedure, shortened: as §1

NCI-H1666 = system: NCI-H1666
Procedure, shortened: as §1

A-427 = system: A-427
Procedure, shortened: as §1

NCI-H1650 = system: NCI-H1650
Procedure, shortened: as §1

HCC-15 = system: HCC-15
Procedure, shortened: as §1

CCN(CC)CCCCNc1ncc2cc(-c3cc(OC)cc(OC)c3)c(NC(=O)NC(C)(C)C)nc2n1 + Cc1nc(Nc2ncc(C(=O)Nc3c(C)cccc3Cl)s2)cc(N2CCN(CCO)CC2)n1 [Dasatinib] (partner 0.075 µM)
relative viability (NCI-H1437; first compound 0.01 µM): 0.366
relative viability (NCI-H1437; first compound 0.03162 µM): 0.504
relative viability (NCI-H1437; first compound 0.1 µM): 0.419
relative viability (NCI-H1437; first compound 0.3162 µM): 0.447
relative viability (NCI-H1437; first compound 1 µM): 0.335
relative viability (NCI-H1792; first compound 0.01 µM): 0.734
relative viability (NCI-H1792; first compound 0.03162 µM): 0.849
relative viability (NCI-H1792; first compound 0.1 µM): 0.837
relative viability (NCI-H1792; first compound 0.3162 µM): 0.671
relative viability (NCI-H1792; first compound 1 µM): 0.475
relative viability (NCI-H650; first compound 0.01 µM): 0.368
relative viability (NCI-H650; first compound 0.03162 µM): 0.454
relative viability (NCI-H650; first compound 0.1 µM): 0.468
relative viability (NCI-H650; first compound 0.3162 µM): 0.48
relative viability (NCI-H650; first compound 1 µM): 0.427
relative viability (SK-MES-1; first compound 0.01 µM): 0.36
relative viability (SK-MES-1; first compound 0.03162 µM): 0.375
relative viability (SK-MES-1; first compound 0.1 µM): 0.407
relative viability (SK-MES-1; first compound 0.3162 µM): 0.281
relative viability (SK-MES-1; first compound 1 µM): 0.27
relative viability (HCC-827; first compound 0.01 µM): 0.338
relative viability (HCC-827; first compound 0.03162 µM): 0.245
relative viability (HCC-827; first compound 0.1 µM): 0.352
relative viability (HCC-827; first compound 0.3162 µM): 0.335
relative viability (HCC-827; first compound 1 µM): 0.299
relative viability (NCI-H596; first compound 0.01 µM): 0.633
relative viability (NCI-H596; first compound 0.03162 µM): 0.593
relative viability (NCI-H596; first compound 0.1 µM): 0.585
relative viability (NCI-H596; first compound 0.3162 µM): 0.393
relative viability (NCI-H596; first compound 1 µM): 0.44
relative viability (SW 900; first compound 0.01 µM): 0.346
relative viability (SW 900; first compound 0.03162 µM): 0.673
relative viability (SW 900; first compound 0.3162 µM): 0.345
relative viability (SW 900; first compound 1 µM): 0.268
relative viability (NCI-H1666; first compound 0.01 µM): 0.824
relative viability (NCI-H1666; first compound 0.03162 µM): 0.757
relative viability (NCI-H1666; first compound 0.1 µM): 0.942
relative viability (NCI-H1666; first compound 0.3162 µM): 0.884
relative viability (NCI-H1666; first compound 1 µM): 0.639
relative viability (A-427; first compound 0.01 µM): 0.749
relative viability (A-427; first compound 0.03162 µM): 0.647
relative viability (A-427; first compound 0.1 µM): 0.924
relative viability (A-427; first compound 0.3162 µM): 0.646
relative viability (A-427; first compound 1 µM): 0.565
relative viability (NCI-H1650; first compound 0.01 µM): 0.319
relative viability (NCI-H1650; first compound 0.03162 µM): 0.286
relative viability (NCI-H1650; first compound 0.1 µM): 0.375
relative viability (NCI-H1650; first compound 0.3162 µM): 0.21
relative viability (NCI-H1650; first compound 1 µM): 0.191
relative viability (HCC-15; first compound 0.01 µM): 0.613
relative viability (HCC-15; first compound 0.03162 µM): 0.7
relative viability (HCC-15; first compound 0.1 µM): 0.681
relative viability (HCC-15; first compound 0.3162 µM): 0.748
relative viability (HCC-15; first compound 1 µM): 0.554
